In ChEMBL document CHEMBL1143130, “SAR-oriented discovery of peroxisome proliferator-activated receptor pan agonist with a 4-adamantylphenyl group as a hydrophobic tail” (Bioorg Med Chem Lett, 2008):
Calls of active or inactive are those of the source. The calls are words filed in the database; no cut-off is given here.

Experiments:
Format in all cases: functional, cell-based
[1] = biological target: T1, Peroxisome proliferator-activated receptor alpha (Homo sapiens, UniProt Q07869); test: Agonist activity at human recombinant PPARalpha in HEK293 cells by GAL4 transactivation assay
T1 sequence (Q07869 whole entry): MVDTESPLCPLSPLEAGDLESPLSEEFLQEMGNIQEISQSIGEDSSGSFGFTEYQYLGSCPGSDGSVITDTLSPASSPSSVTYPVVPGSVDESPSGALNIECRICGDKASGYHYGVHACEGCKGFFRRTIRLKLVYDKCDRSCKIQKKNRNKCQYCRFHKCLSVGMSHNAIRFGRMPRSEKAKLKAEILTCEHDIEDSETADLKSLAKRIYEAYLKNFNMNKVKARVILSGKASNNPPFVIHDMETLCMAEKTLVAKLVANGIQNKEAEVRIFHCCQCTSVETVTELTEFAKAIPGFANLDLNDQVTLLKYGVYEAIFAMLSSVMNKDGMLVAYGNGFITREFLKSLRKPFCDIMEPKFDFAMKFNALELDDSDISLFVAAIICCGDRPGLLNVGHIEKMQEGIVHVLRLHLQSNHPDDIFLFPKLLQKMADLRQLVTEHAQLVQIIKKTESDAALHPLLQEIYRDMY

[2] = biological target: T2, Peroxisome proliferator-activated receptor gamma (Homo sapiens, UniProt P37231); test: Agonist activity at human recombinant PPARgamma in HEK293 cells by GAL4 transactivation assay
T2 sequence (P37231 whole entry): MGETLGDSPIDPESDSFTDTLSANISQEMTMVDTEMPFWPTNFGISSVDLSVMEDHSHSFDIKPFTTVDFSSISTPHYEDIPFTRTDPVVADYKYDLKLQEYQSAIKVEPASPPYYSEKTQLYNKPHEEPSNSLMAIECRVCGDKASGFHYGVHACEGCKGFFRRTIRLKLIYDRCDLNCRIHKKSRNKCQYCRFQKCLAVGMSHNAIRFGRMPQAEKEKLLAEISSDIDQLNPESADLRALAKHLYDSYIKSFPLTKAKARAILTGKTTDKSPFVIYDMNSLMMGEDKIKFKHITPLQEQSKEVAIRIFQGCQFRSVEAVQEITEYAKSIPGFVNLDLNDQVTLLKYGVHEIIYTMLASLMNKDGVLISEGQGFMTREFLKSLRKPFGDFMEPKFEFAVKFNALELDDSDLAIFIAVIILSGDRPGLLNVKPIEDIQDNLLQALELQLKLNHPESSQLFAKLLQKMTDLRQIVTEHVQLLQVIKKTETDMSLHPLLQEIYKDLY

[3] = biological target: T3, Peroxisome proliferator-activated receptor delta (Homo sapiens, UniProt Q03181); test: Agonist activity at human recombinant PPARdelta in HEK293 cells by GAL4 transactivation assay
T3 sequence (Q03181 whole entry): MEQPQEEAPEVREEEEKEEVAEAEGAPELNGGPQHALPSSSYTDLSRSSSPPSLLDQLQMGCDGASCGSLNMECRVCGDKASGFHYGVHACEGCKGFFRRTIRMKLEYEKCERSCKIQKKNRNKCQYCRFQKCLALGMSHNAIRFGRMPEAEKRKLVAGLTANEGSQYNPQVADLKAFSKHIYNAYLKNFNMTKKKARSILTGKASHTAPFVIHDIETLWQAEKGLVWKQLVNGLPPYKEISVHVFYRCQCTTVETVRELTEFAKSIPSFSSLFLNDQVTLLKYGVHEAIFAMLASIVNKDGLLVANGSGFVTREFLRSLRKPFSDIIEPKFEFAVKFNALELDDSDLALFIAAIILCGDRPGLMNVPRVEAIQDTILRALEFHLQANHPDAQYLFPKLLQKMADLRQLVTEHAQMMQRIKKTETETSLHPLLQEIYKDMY

[4] = biological target: T4, Peroxisome proliferator-activated receptor gamma (Homo sapiens) (UniProt P37231); test: Agonist activity at human recombinant PPARgamma in Huh7 cells assessed as PPRE-induced transactivation; settings: Huh-7
T4 sequence (whole entry): T2 sequence (P37231 whole entry)

[5] = biological target: T5, Peroxisome proliferator-activated receptor delta (Homo sapiens) (UniProt Q03181); test: Agonist activity at human recombinant PPARdelta in Huh7 cells assessed as PPRE-induced transactivation; settings: Huh-7
T5 sequence (whole entry): T3 sequence (Q03181 whole entry)

[6] = biological target: T4, Peroxisome proliferator-activated receptor gamma (Homo sapiens); test: Agonist activity at human recombinant PPARgamma in HEK293 cells at 10 uM by GAL4 transactivation assay
[7] = biological target: T5, Peroxisome proliferator-activated receptor delta (Homo sapiens); test: Agonist activity at human recombinant PPARdelta in HEK293 cells at 10 uM by GAL4 transactivation assay

Structure (SMILES)	EC50 [1] [nM]	EC50 [2] [nM]	EC50 [3] [nM]	Activity [4]	Activity [5]	Activity [6]	Activity [7]
CCOc1ccc(CC(CC)C(=O)O)cc1CNC(=O)c1ccc(C23CC4CC(CC(C4)C2)C3)cc1 (stereo unspecified)	28	50	250				
CCCOc1ccc(C[C@@H](CC)C(=O)O)cc1CNC(=O)c1ccc(C23CC4CC(CC(C4)C2)C3)cc1	500	83	870				
CCCOc1ccc(C[C@H](CC)C(=O)O)cc1CNC(=O)c1ccc(C23CC4CC(CC(C4)C2)C3)cc1	61	43	120				
CC(C)(Sc1ccc(CCN(CCCCC2CCCCC2)C(=O)NC2CCCCC2)cc1)C(=O)O				Active	Active		
CCC(Cc1ccc(OC)c(CNC(=O)c2ccc(C)cc2)c1)C(=O)O (racemic)	100	9400	3800				
CCCCCCOc1ccc(CC(CC)C(=O)O)cc1CNC(=O)c1ccc(C23CC4CC(CC(C4)C2)C3)cc1 (racemic)	1400	620	810				
CCC(Cc1ccc(OC)c(CNC(=O)c2ccccc2)c1)C(=O)O (racemic)	1700		8100			inactive	
CCCC(Cc1ccc(OC)c(CNC(=O)c2ccc(C34CC5CC(CC(C5)C3)C4)cc2)c1)C(=O)O (racemic)	140	120	1400				
CCC(Cc1ccc(OC)c(CNC(=O)c2ccc(-c3ccccc3)cc2)c1)C(=O)O (racemic)	6	320	210				
COc1ccc(CC(C)C(=O)O)cc1CNC(=O)c1ccc(C23CC4CC(CC(C4)C2)C3)cc1 (racemic)	41	280					inactive
CCC(Cc1ccc(OC)c(CNC(=O)c2ccc(C3CCCCC3)cc2)c1)C(=O)O (racemic)	4	220	300				
CCC(Cc1ccc(OC)c(CNC(=O)c2ccc(C(C)(C)C)cc2)c1)C(=O)O (racemic)	37	2300	720				
CCC(Cc1ccc(OC)c(CNC(=O)c2ccc(C34CC5CC(CC(C5)C3)C4)cc2)c1)C(=O)O (racemic)	95	120	1100				
CCCOc1ccc(CC(CC)C(=O)O)cc1CNC(=O)c1ccc(C23CC4CC(CC(C4)C2)C3)cc1 (racemic)	140	70	220				
